Laboratory results published in the RepoRT retention time repository.

Test: A: acetonitrile + 0.1% formic acid + 10 mM ammonium formate; B: 5% water + 95% acetonitrile + 0.1% formic acid + 10 mM ammonium formate; gradient (min/%B) 0/10 2/10 22/100 27/100 27.1/10
Conditions: stereoisomer not certain

| LC retention time [min] | SMILES |
| --- | --- |
| 8.44 | Cc1ncc(C[n+]2csc(CCOP(=O)([O-])O)c2C)c(N)n1 [Thiamine monophosphate] |
| 1.04 | Cc1cn(C2CC(O)C(CO)O2)c(=O)[nH]c1=O (stereo not drawn) [Thymidine] |
| 0.793 | Cc1c[nH]c(=O)[nH]c1=O [Thymine] |
| 0.499 | CC12C=CC(=O)C=C1CCC1C3CC(O)C(O)(C(=O)CO)C3(C)CC(O)C12F (stereo not drawn) [Triamcinolone] |
| 5.96 | NC(=O)NC(CC(=O)O)C(=O)O (stereo not drawn) [Ureidosuccinic acid] |
| 8.14 | O=c1ccn(C2OC(COP(=O)(O)OP(=O)(O)O)C(O)C2O)c(=O)[nH]1 (stereo not drawn) [Uridine 5'-diphosphate] |
| 6.86 | O=c1ccn(C2OC(COP(=O)(O)O)C(O)C2O)c(=O)[nH]1 (stereo not drawn) [Uridine-5'-phosphoric acid] |
| 2.92 | O=c1[nH]c(=O)c2[nH]cnc2[nH]1 [Xanthine] |
| 7.42 | O=c1[nH]c(=O)c2ncn(C3OC(COP(=O)(O)O)C(O)C3O)c2[nH]1 (stereo not drawn) [Xanthosine 5'-monophosphate] |
| 5.1 | O=c1[nH]c(=O)c2ncn(C3OC(CO)C(O)C3O)c2[nH]1 (stereo not drawn) [Xanthosine] |
| 6.56 | O=P(O)(O)OC(CO)CO [beta-Glycerophosphoric acid] |
| 6.75 | OC[C@H]1O[C@@H](O[C@H]2[C@H](O)[C@@H](O)[C@H](O)O[C@@H]2CO)[C@H](O)[C@@H](O)[C@H]1O [beta-Lactose] |
| 3.46 | O=C(O)CNC(=O)c1cccc(O)c1 [m-Hydroxyhippuric Acid] |

More lines, now with the values behind:

| SMILES | LC retention time [min] |
| --- | --- |
| Cn1c(=O)c2[nH]cnc2n(C)c1=O [Theophylline] | 0.596 |
| CSc1ccc2c(c1)N(CCC1CCCCN1C)c1ccccc1S2 (stereo not drawn) [Thioridazine] | 0.953 |
| CCCCNC(=O)NS(=O)(=O)c1ccc(C)cc1 [Tolbutamide] | 0.432 |
| CN(C)CCOc1ccc(C(=C(CCCl)c2ccccc2)c2ccccc2)cc1 [Toremifene] | 0.772 |
| O=C(O)C=CCCCCCCCCC(=O)O [Traumatic acid] | 0.561 |
| Nc1nc(N)c2nc(-c3ccccc3)c(N)nc2n1 [Triamterene] | 2.5 |
| CCN(Cc1ccncc1)C(=O)C(CO)c1ccccc1 (stereo not drawn) [Tropicamide] | 0.641 |
| NCCc1c[nH]c2ccccc12 [Tryptamine] | 2.25 |
| NCCc1ccc(O)cc1 [Tyramine] | 3.19 |
| O=C(O)C=Cc1cnc[nH]1 [Urocanic acid] | 1.89 |
| CCCCC(=O)N(Cc1ccc(-c2ccccc2-c2nn[nH]n2)cc1)C(C(=O)O)C(C)C (stereo not drawn) [Valsartan] | 0.733 |
| CNC(CC(C)C)C(=O)NC1C(=O)NC(CC(N)=O)C(=O)NC2C(=O)NC3C(=O)NC(C(=O)NC(C(=O)O)c4cc(O)cc(O)c4-c4cc3ccc4O)C(O)c3ccc(c(Cl)c3)Oc3cc2cc(c3OC2OC(CO)C(O)C(O)C2OC2CC(C)(N)C(O)C(C)O2)Oc2ccc(cc2Cl)C1O (stereo not drawn) [Vancomycin] | 8.2 |
| COc1cc(C=O)ccc1O [Vanillin] | 0.435 |
| CCCc1nc(C)c2c(=O)[nH]c(-c3cc(S(=O)(=O)N4CCN(CC)CC4)ccc3OCC)nn12 [Vardenafil] | 1.08 |
| C=C1CCC(O)CC1=CC=C1CCCC2(C)C1CCC2C(C)CCCC(C)C (stereo not drawn) [Vitamin D3] | 0.407 |
| CC(=O)Oc1cc(C)c(OC(C)=O)c2ccccc12 [Vitamin K4] | 0.412 |
| OCC(O)C(O)C(O)CO (stereo not drawn) [Xylitol] | 5.38 |
| CC(N)c1ccccc1 (stereo not drawn) [alpha-Methylbenzylamine] | 2.3 |
| C=C1CCC2CC1C2(C)C (stereo not drawn) [beta-Pinene] | 0.452 |
| NCCCC(=O)O [gamma-Aminobutyric acid] | 5.83 |
| Nc1ccc(C(=O)O)cc1 [p-Aminobenzoic acid] | 0.555 |
| C[N+](C)(C)CCOP(=O)([O-])OCC(O)CO (stereo not drawn) [sn-glycero-3-Phosphocholine] | 7.21 |
| O=C(O)C/C=C/CC(=O)O [trans-2-Butene-1,4-dicarboxylic Acid] | 5.56 |
| O=C/C=C/c1ccccc1 [trans-Cinnamaldehyde] | 0.43 |
| O=C(O)/C=C/c1ccccc1 [trans-Cinnamic acid] | 0.485 |
